Test results: article PMC11124822, “Discovery and Anticancer Screening of Novel Oxindole-Based Derivative Bearing Pyridyl Group as Potent and Selective Dual FLT3/CDK2 Kinase Inhibitor” (Pharmaceuticals, 2024)

What was measured:
[1] = tested on: MDA-MB-231; test: NCI-60 antiproliferative screen (SRB); format: cell-based, human; settings: 48 h; for inhibition at 10 µM: 10 µM single dose, MDA-MB-231 (Breast), read-out: Growth inhibition (%)
[2] = tested on: EKVX; test: NCI-60 antiproliferative screen (SRB); format: cell-based, human; settings: 48 h; for inhibition at 10 µM: 10 µM single dose, EKVX (NSCLC), read-out: Growth inhibition (%)
[3] = tested on: CNS cancer subpanel; test: NCI-60 screen, subpanel summary; format: cell-based, human
Description: (§1) (Table 5). Moreover, the ratio of the MG-MID of the full-panel to its individual sub-panels offers the selectivity index.

[4] = tested on: Melanoma subpanel; test: NCI-60 screen, subpanel summary; format: cell-based, human
Description: as §1

[5] = tested on: Breast cancer subpanel; test: NCI-60 screen, subpanel summary; format: cell-based, human
Description: as §1

[6] = tested on: Ovarian cancer subpanel; test: NCI-60 screen, subpanel summary; format: cell-based, human
Description: as §1

[7] = tested on: Colon cancer subpanel; test: NCI-60 screen, subpanel summary; format: cell-based, human
Description: as §1

[8] = tested on: NSCL cancer subpanel; test: NCI-60 screen, subpanel summary; format: cell-based, human
Description: as §1

[9] = tested on: Leukemia subpanel; test: NCI-60 screen, subpanel summary; format: cell-based, human
Description: as §1

[10] = tested on: Renal cancer subpanel; test: NCI-60 screen, subpanel summary; format: cell-based, human
Description: as §1

[11] = tested on: Prostate cancer subpanel; test: NCI-60 screen, subpanel summary; format: cell-based, human
Description: as §1

[12] = target: T1, VEGFR-2 (Homo sapiens, UniProt P35968); test: VEGFR-2/KDR ELISA kit kinase assay; format: biochemical
T1 construct: purchased
Description: (§2) The inhibition percentages of the target compound 5l at a concentration of 10 µM were assessed using DMSO as a solvent against ten kinases, namely PTK2B, JAK1, CDK2, FGFR1, IGF1R, VEGFR-2, PDGFRα, PDGFRβ, FLT3, and Src. The Z’-LYTE® technology, which relies on FRET (Fluorescence Resonance Energy Transfer) from Invitrogen/Life Technologies, was employed for this evaluation for all kinases except VEGFR-2. The VEGFR-2 kinase assay was conducted in a 96-well streptavidin-coated plate using a recombinant human VEGFR-2/KDR ELISA kit, following the manufacturer’s instructions. […] Statistical significance was assessed using one-way analysis of variance (ANOVA), followed by the Dunnett test; data are represented as means ± SD.

[13] = target: T2, SRC (Homo sapiens, UniProt P12931); test: Z'-LYTE kinase assay; format: biochemical
T2 construct: purchased Invitrogen/Life Technologies
Description: as §2

[14] = target: T3, JAK1 (Homo sapiens, UniProt P23458); test: Z'-LYTE kinase assay; format: biochemical
T3 construct: purchased Invitrogen/Life Technologies
Description: as §2

[15] = target: T4, PDGFRβ (Homo sapiens, UniProt P09619); test: Z'-LYTE kinase assay; format: biochemical
T4 construct: purchased Invitrogen/Life Technologies
Description: as §2

[16] = target: T5, FGFR1 (Homo sapiens, UniProt P11362); test: Z'-LYTE kinase assay; format: biochemical
T5 construct: purchased Invitrogen/Life Technologies
Description: as §2

[17] = target: T6, IGF1R (Homo sapiens, UniProt P08069); test: Z'-LYTE kinase assay; format: biochemical
T6 construct: purchased Invitrogen/Life Technologies
Description: as §2

[18] = target: T7, PDGFRα (Homo sapiens, UniProt P16234); test: Z'-LYTE kinase assay; format: biochemical
T7 construct: purchased Invitrogen/Life Technologies
Description: as §2

[19] = target: T8, PTK2B (Homo sapiens, UniProt Q14289); test: Z'-LYTE kinase assay; format: biochemical
T8 construct: purchased Invitrogen/Life Technologies
Description: as §2

T2 sequence (P12931 whole entry): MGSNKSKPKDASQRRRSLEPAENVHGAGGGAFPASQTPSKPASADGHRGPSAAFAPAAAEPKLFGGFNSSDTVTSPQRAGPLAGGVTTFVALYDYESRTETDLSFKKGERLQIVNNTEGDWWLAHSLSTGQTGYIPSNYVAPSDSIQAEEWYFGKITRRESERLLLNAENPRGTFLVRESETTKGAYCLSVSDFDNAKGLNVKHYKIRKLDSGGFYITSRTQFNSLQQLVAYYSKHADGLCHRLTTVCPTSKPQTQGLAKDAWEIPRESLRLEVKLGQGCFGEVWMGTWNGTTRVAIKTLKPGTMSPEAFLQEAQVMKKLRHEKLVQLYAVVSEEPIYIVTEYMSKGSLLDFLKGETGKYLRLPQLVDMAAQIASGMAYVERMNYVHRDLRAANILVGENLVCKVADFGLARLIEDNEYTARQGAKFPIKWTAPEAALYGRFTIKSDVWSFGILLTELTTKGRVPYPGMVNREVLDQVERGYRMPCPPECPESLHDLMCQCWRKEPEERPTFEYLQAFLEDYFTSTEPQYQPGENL
T6 sequence (P08069 31-1367): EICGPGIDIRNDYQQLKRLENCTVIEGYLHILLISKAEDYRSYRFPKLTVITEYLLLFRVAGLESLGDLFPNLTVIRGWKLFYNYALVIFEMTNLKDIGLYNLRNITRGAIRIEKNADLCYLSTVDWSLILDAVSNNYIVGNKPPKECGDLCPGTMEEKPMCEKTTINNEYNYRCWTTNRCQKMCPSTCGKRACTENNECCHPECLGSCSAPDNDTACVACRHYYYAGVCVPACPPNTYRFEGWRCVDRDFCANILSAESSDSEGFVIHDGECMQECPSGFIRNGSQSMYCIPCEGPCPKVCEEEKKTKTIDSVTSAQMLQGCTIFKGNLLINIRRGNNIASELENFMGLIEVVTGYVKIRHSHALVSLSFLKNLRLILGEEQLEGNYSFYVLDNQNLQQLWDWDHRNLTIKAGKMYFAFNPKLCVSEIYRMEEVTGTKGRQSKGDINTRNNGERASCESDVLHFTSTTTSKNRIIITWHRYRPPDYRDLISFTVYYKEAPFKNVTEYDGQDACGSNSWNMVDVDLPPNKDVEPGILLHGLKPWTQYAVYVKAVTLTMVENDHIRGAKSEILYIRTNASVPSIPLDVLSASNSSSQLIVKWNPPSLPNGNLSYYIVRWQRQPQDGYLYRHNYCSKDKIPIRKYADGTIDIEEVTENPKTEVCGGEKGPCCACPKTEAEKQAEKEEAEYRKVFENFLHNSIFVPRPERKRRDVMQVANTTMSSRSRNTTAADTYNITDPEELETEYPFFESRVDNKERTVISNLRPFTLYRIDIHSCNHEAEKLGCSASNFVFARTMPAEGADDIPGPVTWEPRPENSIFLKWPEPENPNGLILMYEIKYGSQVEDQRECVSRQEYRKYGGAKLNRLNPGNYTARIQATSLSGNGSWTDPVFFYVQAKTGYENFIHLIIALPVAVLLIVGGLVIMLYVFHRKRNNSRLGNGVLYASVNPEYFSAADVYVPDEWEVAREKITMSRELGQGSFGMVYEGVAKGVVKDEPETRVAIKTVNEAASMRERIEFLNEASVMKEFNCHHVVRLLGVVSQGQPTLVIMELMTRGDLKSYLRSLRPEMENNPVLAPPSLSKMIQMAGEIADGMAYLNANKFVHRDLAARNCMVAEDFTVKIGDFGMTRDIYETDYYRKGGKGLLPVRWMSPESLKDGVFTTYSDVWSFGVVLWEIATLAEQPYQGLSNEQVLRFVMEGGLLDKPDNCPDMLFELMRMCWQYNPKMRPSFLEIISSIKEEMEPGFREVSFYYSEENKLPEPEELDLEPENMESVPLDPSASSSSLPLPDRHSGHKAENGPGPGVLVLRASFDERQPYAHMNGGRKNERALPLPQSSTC
T1 sequence (P35968 20-1356): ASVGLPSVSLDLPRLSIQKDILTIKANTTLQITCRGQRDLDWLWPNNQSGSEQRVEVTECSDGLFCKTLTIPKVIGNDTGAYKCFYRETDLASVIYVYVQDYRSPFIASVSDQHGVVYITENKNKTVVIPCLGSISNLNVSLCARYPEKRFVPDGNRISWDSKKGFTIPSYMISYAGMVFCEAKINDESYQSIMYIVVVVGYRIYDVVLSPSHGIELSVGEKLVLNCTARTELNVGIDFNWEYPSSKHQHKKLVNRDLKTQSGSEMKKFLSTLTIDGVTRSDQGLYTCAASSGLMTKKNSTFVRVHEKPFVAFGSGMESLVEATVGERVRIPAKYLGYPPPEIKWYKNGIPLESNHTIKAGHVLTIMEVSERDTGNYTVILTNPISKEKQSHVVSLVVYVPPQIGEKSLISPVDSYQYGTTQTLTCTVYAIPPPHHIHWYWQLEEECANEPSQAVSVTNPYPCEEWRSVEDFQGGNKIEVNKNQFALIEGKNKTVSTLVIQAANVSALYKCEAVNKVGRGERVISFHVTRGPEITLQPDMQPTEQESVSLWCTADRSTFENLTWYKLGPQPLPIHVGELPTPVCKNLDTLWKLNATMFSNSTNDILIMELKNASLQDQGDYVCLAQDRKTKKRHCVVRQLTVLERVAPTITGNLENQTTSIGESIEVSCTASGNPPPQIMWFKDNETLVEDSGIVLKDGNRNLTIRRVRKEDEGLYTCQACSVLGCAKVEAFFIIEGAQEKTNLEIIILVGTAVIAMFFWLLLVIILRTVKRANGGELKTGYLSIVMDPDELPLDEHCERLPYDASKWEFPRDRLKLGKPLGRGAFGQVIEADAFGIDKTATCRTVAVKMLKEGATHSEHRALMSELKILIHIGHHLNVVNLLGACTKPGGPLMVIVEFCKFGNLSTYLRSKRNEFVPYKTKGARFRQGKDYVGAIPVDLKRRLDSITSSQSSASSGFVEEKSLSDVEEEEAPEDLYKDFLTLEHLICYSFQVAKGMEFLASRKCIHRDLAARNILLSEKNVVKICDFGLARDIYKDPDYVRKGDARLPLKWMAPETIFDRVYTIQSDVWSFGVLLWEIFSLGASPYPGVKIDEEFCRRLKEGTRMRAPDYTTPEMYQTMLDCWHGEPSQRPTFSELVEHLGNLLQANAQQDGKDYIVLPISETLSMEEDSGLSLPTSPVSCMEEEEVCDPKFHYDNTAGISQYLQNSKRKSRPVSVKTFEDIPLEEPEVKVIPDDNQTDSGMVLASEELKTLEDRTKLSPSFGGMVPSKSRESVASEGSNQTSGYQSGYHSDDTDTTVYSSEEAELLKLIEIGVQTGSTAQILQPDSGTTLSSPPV
T8 sequence (Q14289 whole entry): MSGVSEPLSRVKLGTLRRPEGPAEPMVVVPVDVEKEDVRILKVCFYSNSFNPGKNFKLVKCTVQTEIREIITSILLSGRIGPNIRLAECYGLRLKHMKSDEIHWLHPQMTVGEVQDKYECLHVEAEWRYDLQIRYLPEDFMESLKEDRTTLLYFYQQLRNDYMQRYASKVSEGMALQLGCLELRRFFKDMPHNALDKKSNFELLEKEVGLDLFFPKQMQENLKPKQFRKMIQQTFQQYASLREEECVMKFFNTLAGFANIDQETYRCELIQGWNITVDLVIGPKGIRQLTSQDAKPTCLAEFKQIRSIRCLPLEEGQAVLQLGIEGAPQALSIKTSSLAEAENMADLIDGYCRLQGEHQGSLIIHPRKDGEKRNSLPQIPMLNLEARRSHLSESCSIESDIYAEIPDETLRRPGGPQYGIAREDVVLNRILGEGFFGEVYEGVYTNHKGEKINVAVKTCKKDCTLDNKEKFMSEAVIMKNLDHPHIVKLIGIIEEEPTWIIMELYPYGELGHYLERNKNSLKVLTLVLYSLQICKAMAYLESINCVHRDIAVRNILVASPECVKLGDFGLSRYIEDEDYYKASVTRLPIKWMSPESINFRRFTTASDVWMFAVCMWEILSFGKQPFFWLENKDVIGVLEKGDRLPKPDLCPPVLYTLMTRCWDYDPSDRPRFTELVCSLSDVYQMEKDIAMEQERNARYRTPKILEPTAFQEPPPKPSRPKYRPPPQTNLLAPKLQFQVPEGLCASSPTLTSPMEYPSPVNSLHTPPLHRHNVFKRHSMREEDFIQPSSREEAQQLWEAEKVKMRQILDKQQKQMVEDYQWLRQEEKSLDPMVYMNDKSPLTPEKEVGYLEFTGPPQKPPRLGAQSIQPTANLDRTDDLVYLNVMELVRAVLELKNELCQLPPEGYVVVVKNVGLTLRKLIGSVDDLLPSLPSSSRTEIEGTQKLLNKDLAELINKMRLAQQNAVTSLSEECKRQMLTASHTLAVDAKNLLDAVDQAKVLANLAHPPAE
T5 sequence (P11362 22-822): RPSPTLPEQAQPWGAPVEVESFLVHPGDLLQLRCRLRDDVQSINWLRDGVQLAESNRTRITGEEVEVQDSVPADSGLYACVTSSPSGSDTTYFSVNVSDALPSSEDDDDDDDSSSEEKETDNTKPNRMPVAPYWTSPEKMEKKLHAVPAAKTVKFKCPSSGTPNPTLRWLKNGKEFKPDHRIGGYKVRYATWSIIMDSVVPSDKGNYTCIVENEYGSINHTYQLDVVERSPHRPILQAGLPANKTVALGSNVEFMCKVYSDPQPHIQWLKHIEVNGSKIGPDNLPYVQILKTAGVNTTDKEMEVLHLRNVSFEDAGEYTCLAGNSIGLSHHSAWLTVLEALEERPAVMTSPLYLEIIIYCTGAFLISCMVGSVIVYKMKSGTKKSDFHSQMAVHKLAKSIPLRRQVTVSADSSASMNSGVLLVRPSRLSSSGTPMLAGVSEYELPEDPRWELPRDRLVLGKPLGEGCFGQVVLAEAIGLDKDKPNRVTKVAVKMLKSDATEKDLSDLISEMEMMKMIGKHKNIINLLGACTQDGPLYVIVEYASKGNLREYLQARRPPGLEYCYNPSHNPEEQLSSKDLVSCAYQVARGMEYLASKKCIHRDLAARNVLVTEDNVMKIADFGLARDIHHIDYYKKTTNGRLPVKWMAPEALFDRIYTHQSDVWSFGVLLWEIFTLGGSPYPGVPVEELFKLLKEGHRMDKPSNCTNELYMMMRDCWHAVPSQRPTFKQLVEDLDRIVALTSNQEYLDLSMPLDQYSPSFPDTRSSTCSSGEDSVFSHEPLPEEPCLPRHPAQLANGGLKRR

## O=C1Nc2ccccc2C1=Cc1ccc(OCc2ccccc2)cc1 (mixture of isomers) [Compound 5a, (E/Z)-3-[4-(Benzyloxy)benzylidene] indolin-2-one]
[1]; Homo sapiens
  inhibition at 10 µM: -10%
[2]; Homo sapiens
  inhibition at 10 µM: 0.69%

## O=C1Nc2ccc(F)cc2C1=Cc1ccc(OCc2ccccc2)cc1 (mixture of isomers) [Compound 5b, (E/Z)-3-[4-(Benzyloxy)benzylidene]-5-fluoroindolin-2-one]
[1]; Homo sapiens
  inhibition at 10 µM: 2.43%
[2]; Homo sapiens
  inhibition at 10 µM: 0.65%

## O=C1Nc2ccc(Cl)cc2C1=Cc1ccc(OCc2ccccc2)cc1 (mixture of isomers) [Compound 5c, (E/Z)-3-[4-(Benzyloxy)benzylidene]-5-chloroindolin-2-one]
[1]; Homo sapiens
  inhibition at 10 µM: -5.3%
[2]; Homo sapiens
  inhibition at 10 µM: 0.85%

## O=C1Nc2cc(Cl)ccc2C1=Cc1ccc(OCc2ccccc2)cc1 (mixture of isomers) [Compound 5d, (E/Z)-3-[4-(Benzyloxy)benzylidene]-6-chloroindolin-2-one]
[1]; Homo sapiens
  inhibition at 10 µM: -3.65%
[2]; Homo sapiens
  inhibition at 10 µM: -0.31%

## O=C1Nc2ccccc2C1=Cc1ccc(OCc2ccccn2)cc1 (mixture of isomers) [Compound 5e, (E/Z)-3-[4-(Pyridin-2-ylmethoxy]benzylidene) indolin-2-one]
[2]; Homo sapiens
  inhibition at 10 µM: 47.3%

## O=C1Nc2ccc(F)cc2C1=Cc1ccc(OCc2ccccn2)cc1 (mixture of isomers) [Compound 5f, (E/Z)-5-fluoro-3-[4-(pyridin-2-ylmethoxy)benzylidene]indolin-2-one]
[1]; Homo sapiens
  inhibition at 10 µM: 14.9%
[2]; Homo sapiens
  inhibition at 10 µM: 15.8%

## O=C1Nc2ccc(Cl)cc2C1=Cc1ccc(OCc2ccccn2)cc1 (mixture of isomers) [Compound 5g, (E/Z)-5-Chloro-3-[4-(pyridin-2-ylmethoxy)benzylidene] indolin-2-one]
[1]; Homo sapiens
  inhibition at 10 µM: 78.3%
[2]; Homo sapiens
  inhibition at 10 µM: 34.3%

## O=C1Nc2cc(Cl)ccc2C1=Cc1ccc(OCc2ccccn2)cc1 (mixture of isomers) [Compound 5h, (E/Z)-6-Chloro-3-[4-(pyridin-2-ylmethoxy)benzylidene]indolin-2-one]
[2]; Homo sapiens
  inhibition at 10 µM: 49.4%

## O=C1Nc2ccccc2C1=Cc1ccc(OCc2cccnc2)cc1 (mixture of isomers) [Compound 5i, (E/Z)-3-[4-(Pyridin-3-ylmethoxy)benzylidene]indolin-2-one]
[1]; Homo sapiens
  inhibition at 10 µM: 35.4%
[2]; Homo sapiens
  inhibition at 10 µM: 31.7%

## O=C1Nc2ccc(F)cc2C1=Cc1ccc(OCc2cccnc2)cc1 (mixture of isomers) [Compound 5j, (E/Z)-5-Fluoro-3-[4-(pyridin-3-ylmethoxy)benzylidene]indolin-2-one]
[1]; Homo sapiens
  inhibition at 10 µM: 42%
[2]; Homo sapiens
  inhibition at 10 µM: 41%

## O=C1Nc2ccc(Cl)cc2C1=Cc1ccc(OCc2cccnc2)cc1 (mixture of isomers) [Compound 5k, (E/Z)-5-Chloro-3-[4-(pyridin-3-ylmethoxy)benzylidene] indolin-2-one]
[1]; Homo sapiens
  inhibition at 10 µM: 9.08%
[2]; Homo sapiens
  inhibition at 10 µM: 16.1%

## O=C1Nc2cc(Cl)ccc2C1=Cc1ccc(OCc2cccnc2)cc1 (mixture of isomers) [Compound 5l, (E/Z)-6-Chloro-3-[4-(pyridin-3-ylmethoxy)benzylidene] indolin-2-one]
[1]; Homo sapiens
  inhibition at 10 µM: 67.5%
[1]; Homo sapiens, five-dose, MDA-MB-231/ATCC
  GI50: 15.8 µM
[1]; Homo sapiens, five-dose, MDA-MB-231/ATCC, read-out: LC50 (the source's name)
  CC50: > 100 µM
[1]; five-dose, MDA-MB-231/ATCC
  TGI: >100 µM
[3]; Homo sapiens, five-dose, CNS cancer subpanel, read-out: MG-MID (GI50)
  GI50: 11 µM
[3]; ratio of full-panel MG-MID to CNS cancer subpanel MG-MID
  Selectivity Index: 1.11
[4]; Homo sapiens, 10 µM, melanoma, read-out: overall inhibition in panel (radar chart)
  inhibition at 10 µM: > 90%
[4]; Homo sapiens, five-dose, Melanoma subpanel, read-out: MG-MID (GI50)
  GI50: 10.9 µM
[4]; ratio of full-panel MG-MID to Melanoma subpanel MG-MID
  Selectivity Index: 1.12
[5]; Homo sapiens, five-dose, Breast cancer subpanel, read-out: MG-MID (GI50)
  GI50: 8.14 µM
[5]; ratio of full-panel MG-MID to Breast cancer subpanel MG-MID
  Selectivity Index: 1.50
[6]; Homo sapiens, five-dose, Ovarian cancer subpanel, read-out: MG-MID (GI50)
  GI50: 29.4 µM
[6]; ratio of full-panel MG-MID to Ovarian cancer subpanel MG-MID
  Selectivity Index: 0.42
[7]; Homo sapiens, 10 µM, colon cancer, read-out: overall inhibition in panel (radar chart)
  inhibition at 10 µM: > 90%
[7]; Homo sapiens, five-dose, Colon cancer subpanel, read-out: MG-MID (GI50)
  GI50: 5.97 µM
[7]; ratio of full-panel MG-MID to Colon cancer subpanel MG-MID
  Selectivity Index: 2.05
[8]; Homo sapiens, five-dose, NSCL cancer subpanel, read-out: MG-MID (GI50)
  GI50: 11.7 µM
[8]; ratio of full-panel MG-MID to NSCL cancer subpanel MG-MID
  Selectivity Index: 1.05
[9]; Homo sapiens, 10 µM, leukemia, read-out: overall inhibition in panel (radar chart)
  inhibition at 10 µM: > 90%
[9]; Homo sapiens, five-dose, Leukemia subpanel, read-out: MG-MID (GI50)
  GI50: 3.39 µM
[9]; ratio of full-panel MG-MID to Leukemia subpanel MG-MID
  Selectivity Index: 3.61
[10]; Homo sapiens, five-dose, Renal cancer subpanel, read-out: MG-MID (GI50)
  GI50: 19.8 µM
[10]; ratio of full-panel MG-MID to Renal cancer subpanel MG-MID
  Selectivity Index: 0.62
[11]; Homo sapiens, five-dose, Prostate cancer subpanel, read-out: MG-MID (GI50)
  GI50: 9.78 µM
[11]; ratio of full-panel MG-MID to Prostate cancer subpanel MG-MID
  Selectivity Index: 1.25
[2]; Homo sapiens
  inhibition at 10 µM: 60.9%
[2]; Homo sapiens, five-dose, EKVX
  GI50: 6.02 µM
[2]; five-dose, EKVX
  TGI: >100 µM
[12]
  inhibition at 10 µM: 38.5%
[13]
  inhibition at 10 µM: 10.9%
[14]
  inhibition at 10 µM: 4.17%
[15]
  inhibition at 10 µM: 26.6%
[16]
  inhibition at 10 µM: 24.1%
[17]
  inhibition at 10 µM: 2.88%
[18]
  inhibition at 10 µM: 43.5%
[19]
  inhibition at 10 µM: 9.96%

## O=C1Nc2ccccc2C1=Cc1ccc(OCc2ccncc2)cc1 (mixture of isomers) [Compound 5m, (E/Z)-3-[4-(Pyridin-4-ylmethoxy)benzylidene] indolin-2-one]
[1]; Homo sapiens
  inhibition at 10 µM: 16.6%
[2]; Homo sapiens
  inhibition at 10 µM: 63.5%

## O=C1Nc2ccc(F)cc2C1=Cc1ccc(OCc2ccncc2)cc1 (mixture of isomers) [Compound 5n, (E/Z)-5-Fluoro-3-[4-(pyridin-4-ylmethoxy)benzylidene] indolin-2-one]
[1]; Homo sapiens
  inhibition at 10 µM: 20.7%
[2]; Homo sapiens
  inhibition at 10 µM: 52.2%

## O=C1Nc2ccc(Cl)cc2C1=Cc1ccc(OCc2ccncc2)cc1 (mixture of isomers) [Compound 5o, (E/Z)-5-Chloro-3-[4-(pyridin-4-ylmethoxy)benzylidene] indolin-2-one]
[1]; Homo sapiens
  inhibition at 10 µM: 24.9%
[2]; Homo sapiens
  inhibition at 10 µM: 37.6%

## O=C1Nc2cc(Cl)ccc2C1=Cc1ccc(OCc2ccncc2)cc1 (mixture of isomers) [Compound 5p, (E/Z)-6-Chloro-3-[4-(pyridin-4-ylmethoxy)benzylidene]indolin-2-one]
[1]; Homo sapiens
  inhibition at 10 µM: 32.7%
[2]; Homo sapiens
  inhibition at 10 µM: 45.1%
